For two compounds, Kd, binding and ΔTm results are on record in publication PMC7470941 (2020).

Assay [1] concerns FP-hTeloC (DNA, i motif, 5'-fluoromonophosphate) TAACCCTAACCCTAACCCTAACCC
The assay is described as follows: 19F NMR titration. The settings on record: Na+ (50 mM sodium citrate); apparent; pH 4.2, 10% D2O; 212.5 μM FP-hTeloC, 80 μM AMPF reference.

In assay [2] the test system is hTeloC (DNA, i motif) TAACCCTAACCCTAACCCTAACCC
The assay can be described thus: UV/VIS melting, 295 nm. The settings on record: Na+ (50 mM citrate buffer); pH 5.5, 10% D2O; destabilised by excess mitoxantrone.

In assay [3] the test system is FP-hTeloC (DNA, i motif, 5'-fluoromonophosphate) TAACCCTAACCCTAACCCTAACCC
The assay can be described thus: UV/VIS melting, 295 nm. The settings on record: Na+ (50 mM citrate buffer); pH 5.5, 10% D2O; 4 μM DNA; destabilised by excess mitoxantrone.

Assay [4] has the same test system. The assay is described as follows: 19F NMR melting, i-motif signal. The settings on record: Na+ (50 mM citrate buffer); pH 5.5, 10% D2O; 250 μM DNA, two equivalents mitoxantrone (+1.1 °C at 0.3 equivalents).
In assay [5] the test system is FP-hTeloC, ssDNA form at pH 6.4 (DNA, single strand, 5'-fluoromonophosphate) TAACCCTAACCCTAACCCTAACCC
The assay can be described thus: 19F NMR chemical shift change. The settings on record: Na+ (10 mM sodium cacodylate, 100 mM NaCl); pH 6.4, 10% D2O; i-motif:ssDNA 45:55; ΔδF = −0.02 ppm.

Assay [6] deals with FPON1 (DNA, i motif, 5'-fluoromonophosphate) TCCCCC. The assay can be described thus: 19F NMR titration. Particulars: Na+ (50 mM sodium citrate); pH 4.2, 10% D2O, 25 °C; 500 μM FPON1 (125 μM i-motif), 100 μM AMPF reference.

Turning to `O=C1c2c(O)ccc(O)c2C(=O)c2c(NCCNCCO)ccc(NCCNCCO)c21`, the Kd in assay [1] was 70 ± 30 µM. Further, the binding result in assay [2] is “yes”; in assay [3], “yes”; in assay [5], “weak”. In assay [4], the thermal shift (ΔTm) (commonly the shift of the melting midpoint relative to a reference) is −3.2 °C.
With `C[n+]1ccc(-c2c3nc(c(-c4cc[n+](C)cc4)c4ccc([nH]4)c(-c4cc[n+](C)cc4)c4nc(c(-c5cc[n+](C)cc5)c5ccc2[nH]5)C=C4)C=C3)cc1`, the Kd in assay [6] came to 180 ± 30 µM.
